Laboratory results taken from patent publication US8969573B2, “Compounds for the inhibition of cellular proliferation” (President and Fellows of Harvard College, priority 2010, dated 2015).
Like-named read-outs stand apart in the source and are kept apart here.

What was measured:
[1] = tested on: CRL2351 human breast cancer; assay: SRB assay (inhibition of cell proliferation); type: cell-based; settings: CRL2351 human breast cancer cells
Excerpt: (§1) A sulfur rhodamine B (SRB) assay was used to determine the extent of inhibition of cell proliferation as a measure of the anti-cancer activity of compounds of the present disclosure. The reagent SRB binds to cellular proteins and absorbs light proportionally to the cellular protein content, which is a surrogate marker for the number of cells. According to aspects of the present disclosure, the assay can be used to with any cancer cell line including breast cancer cell lines, prostate cancer cell lines, melanoma cell lines, lung cancer cell lines or any other cell lines of the cancers described herein.
(§2) The following protocol was used to determine the growth characteristics of certain cell lines CRL2351 human breast cancer and CRL2813 human melanoma from which cell lines having doubling times less than 48 hours were selected for growth inhibition experiments. […] The following materials were used in addition to the cancel cell lines: complete (5% fetal calf serum added) tissue culture media, 96-well tissue culture plates, Sulforhodamine B dye (SRB, 0.57% w/w), […] (TCA, 10%), acetic acid glacial (1%) and 10 mM Tris base. The cells were prepared and plated. Cancer cells were grown to 80% confluency in an incubator. The cells were trypsinized per standard protocol or as needed for each cell line. The trypsin was neutralized, cells dissociated and counted. Each cell line was plated at a density of 500, 1000 and 3000 cells per well (six wells each) in five separate plates. The cells were then returned to the incubator. One plate was then removed each day starting day one after plating. 100 μl of 10% TCA was then added and the cells were fixed at 4° C. until all the cells were fixed. […] The cell growth for vehicle treatment is considered to be 100%. The optical density was then measured and plotted for each starting cell number and cell line against time. The percent cell growth inhibition was calculated as 100 minus the % of control cell growth. The % of control cell growth=((mean OD sample−Mean OD day 0)/(mean OD vehicle−Mean OD day 0))*100.

CRL2813 human melanoma = assay: SRB assay (inhibition of cell proliferation); type: cell-based
Excerpt: as §1, §2

eIF4E/eIF4G interaction = eIF4E/eIF4G interaction (Homo sapiens, UniProt P06730); assay: Fluorescent polarization assay; type: binding; settings: FITC eIF4G peptide and recombinant eIF4E, ratio to Z (4EGI-1 = 1)
Experimental: The difference between the two measurement yields net polarization which is considered full signal of the assay (100% control). […] The activity of compound at each concentration is determined by comparing the fluorescent polarization (FP) signal in the presence of compound to the control (no compound) value. The percent inhibition is =100-((FP compound/FP control)*100).

[2] = Homo sapiens, summary table, read-out: IC50 [μM} CRL2351
[3] = Homo sapiens, CRL2813, CRL2813 human melanoma cells, summary table, read-out: IC50 [μM} CRL2813
[4] = summary table, read-out: IC50 [μM} CRL2351
[5] = CRL2813 human melanoma cells, summary table, read-out: IC50 [μM} CRL2813
[6] = Homo sapiens, Tables 1, 4, 5, read-out: SRB-IC50 (μM) 2351

eIF4E/eIF4G interaction, sequence (P06730 whole entry): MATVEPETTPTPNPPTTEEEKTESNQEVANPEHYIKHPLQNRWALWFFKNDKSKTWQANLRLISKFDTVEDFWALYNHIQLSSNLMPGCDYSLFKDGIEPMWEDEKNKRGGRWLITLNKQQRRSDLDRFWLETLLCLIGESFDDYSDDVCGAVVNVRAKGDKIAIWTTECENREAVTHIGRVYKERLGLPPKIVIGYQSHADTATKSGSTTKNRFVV

| SMILES | IC50 [1, 2] | IC50 (CRL2813 human melanoma; [3]) | Fp (ratio to Z) (eIF4E/eIF4G interaction) | IC50 [1, 4] | IC50 (CRL2813 human melanoma; [5]) | IC50 [1, 6] | IC50 (CRL2813 human melanoma; Homo sapiens, CRL2813, CRL2813 human melanoma cells, Tables 1, 4, 5, read-out: SRB-IC50 (μM) 2813) | IC50 (CRL2813 human melanoma; CRL2813 human melanoma cells, Tables 1, 4, 5, read-out: SRB-IC50 (μM) 2813) |
| --- | --- | --- | --- | --- | --- | --- | --- | --- |
| O=C(O)/C(Cc1c(Br)cccc1[N+](=O)[O-])=N/Nc1nc(-c2ccc(Cl)c(Cl)c2)cs1 [RYF-339F] | < 0.54 µM | 1 µM | 2.0 |  |  |  |  |  |
| COc1ccc(-c2nc(NN=C(Cc3ccccc3[N+](=O)[O-])C(=O)O)sc2-c2ccc(OC)cc2)cc1 [KY-323A] |  |  | 0.67 | 0.6 µM | 1 µM |  |  |  |
| COc1ccc(-c2nc(NN=C(Cc3ccccc3[N+](=O)[O-])C(=O)O)sc2-c2ccc(Cl)cc2)cc1 [KY-355PR] | > 20 µM | 3 ± 0.18 µM | 1.1 |  |  |  |  |  |
| COc1ccc(-c2sc(N/N=C(/Cc3ccccc3[N+](=O)[O-])C(=O)O)nc2-c2ccc(Cl)c(Cl)c2)cc1 [KY-600] | 4.5 µM | 2.8 µM | 0.7 |  |  |  |  |  |
| COc1ccc(-c2nc(N/N=C(\Cc3ccccc3[N+](=O)[O-])C(=O)O)sc2-c2cccc(-n3cc(CO)nn3)c2)cc1 [KY-467F] | > 20 µM | > 20 µM | 0.7 |  |  |  |  |  |
| CCOc1ccc(-c2nc(N/N=C(/Cc3ccccc3[N+](=O)[O-])C(=O)O)sc2-c2ccc(OC)cc2)cc1 [KY-576F] |  |  | 1 | 2 µM | 2 µM |  |  |  |
| COc1ccc(-c2nc(NN=C(Cc3ccccc3[N+](=O)[O-])C(=O)O)sc2-c2ccc(Cl)cc2)cc1OC [KY-353PR] | > 20 µM | > 20 µM | 0.7 |  |  |  |  |  |
| COc1cc(-c2nc(NN=C(Cc3ccccc3[N+](=O)[O-])C(=O)O)sc2-c2ccc(Cl)c(Cl)c2)cc(OC)c1OC [KY-369S] | 0.6 ± 0.02 µM | 2 ± 0.19 µM | 0.75 |  |  |  |  |  |
| COc1ccc(-c2sc(N/N=C(/Cc3ccccc3[N+](=O)[O-])C(=O)O)nc2-c2ccc(C3CCCCC3)cc2)cc1 [KY-612S] | 11 µM |  | 1.8 |  | 0.3 µM |  |  |  |
| COc1ccc(-c2nc(NN=C(Cc3ccccc3[N+](=O)[O-])C(=O)O)sc2-c2ccc(-n3cc(-c4cccc(O)c4)nn3)cc2)cc1 [KY-441] | > 20 µM | 15 ± 1.12 µM | 1.2 |  |  |  |  |  |
| O=C(O)/C(Cc1ccccc1)=N/Nc1nc(-c2ccc(Cl)c(Cl)c2)cs1 [KY-706bc] | 3.5 µM | 3 µM | 0.65 |  |  |  |  |  |
| O=C(O)/C(Cc1ccc(C(F)(F)F)cc1)=N/Nc1nc(-c2ccc(Cl)c(Cl)c2)cs1 [KY-680] | 3 µM | 1 µM | 1.1 |  |  |  |  |  |
| O=C(O)c1nn(-c2nc(-c3ccccc3)cs2)c2ccc([N+](=O)[O-])cc12 [RYF-292] | 9 µM | 2.5 µM | 0.6 |  |  |  |  |  |
| COc1ccc(-c2nc(N/N=C(\Cc3ccccc3[N+](=O)[O-])C(=O)O)sc2-c2ccc(-c3ccccc3)cc2)cc1 [KY-435-F] |  |  | 0.5 | 2.8 ± 0.73 µM | 3 ± 0.56 µM |  |  |  |
| O=C(O)C(=NNc1nc(-c2ccc(Cl)c(Cl)c2)cs1)c1ccccc1[N+](=O)[O-] (stereo in doubt) [KY-782-E, (E)-2-(2-(4-(3,4-dichlorophenyl)thiazol-2-yl)hydrazono)-2-(2-nitrophenyl)acetic acid] |  |  | 0.94 | 10 µM | 2.2 µM |  |  |  |
| N.O=C(O)/C(Cn1cc(-c2ccccn2)nn1)=N/Nc1nc(-c2ccc(Cl)c(Cl)c2)cs1 [KY-767, ammonium (E)-2-(2-(4-(3,4-dichlorophenyl)thiazol-2-yl)hydrazono)-3-(4-(pyridin-2-yl)-1H-1,2,3-triazol-1-yl)propanoate] | 9 µM | 3.5 µM | 0.75 |  |  |  |  |  |
| CCCc1sc(N/N=C(/Cc2ccccc2[N+](=O)[O-])C(=O)O)nc1-c1ccc(OC)cc1 [KY-582S] | 13.2 µM | 11.6 µM | 0.9 |  |  |  |  |  |

| SMILES | IC50 [1, 2] | IC50 (CRL2813 human melanoma; [3]) | Fp (ratio to Z) (eIF4E/eIF4G interaction) | IC50 [1, 4] | IC50 (CRL2813 human melanoma; [5]) | IC50 [1, 6] | IC50 (CRL2813 human melanoma; Homo sapiens, CRL2813, CRL2813 human melanoma cells, Tables 1, 4, 5, read-out: SRB-IC50 (μM) 2813) | IC50 (CRL2813 human melanoma; CRL2813 human melanoma cells, Tables 1, 4, 5, read-out: SRB-IC50 (μM) 2813) |
| --- | --- | --- | --- | --- | --- | --- | --- | --- |
| O=C(O)C(Cc1ccccc1[N+](=O)[O-])=NNc1nc(-c2cc(Br)cc(Br)c2O)cs1 [KH-102BIIs] |  |  | 0.69 | 18 µM | 20.5 µM |  |  |  |
| COc1ccc(-c2nc(NN=C(Cc3ccccc3[N+](=O)[O-])C(=O)O)sc2-c2ccc(N=[N+]=[N-])cc2)cc1 [KY-379S] | 1.2 ± 0.04 µM | 3 ± 0.2 µM | 1.2 |  |  |  |  |  |
| O=C(O)C(Cc1ccccc1[N+](=O)[O-])=NNc1nc(-c2cc(Br)cc(Br)c2O)cs1 [KH-102BII] | 9 µM | > 20 µM | 0.69 |  |  |  |  |  |
| COc1ccc(-c2sc(NN=C(Cc3ccccc3[N+](=O)[O-])C(=O)O)nc2-c2ccc(OC)c(OC)c2)cc1 [KY-343PR] | > 20 µM | > 20 µM | 1 |  |  |  |  |  |
| COc1ccc(-c2sc(N/N=C(/Cc3ccccc3[N+](=O)[O-])C(=O)O)nc2-c2ccc(OC(C)C)cc2)cc1 [KY-599S] | 8.7 µM | 3 µM | 1.3 |  |  |  |  |  |
| [N-]=[N+]=NCCOc1cccc(-c2csc(N/N=C(/Cc3ccccc3[N+](=O)[O-])C(=O)O)n2)c1 [KH-174] | 1.2 µM | 11 µM | 0.82 |  |  | 1.3 µM | 11 µM |  |
| COc1ccc(-c2csc(NN=C(Cc3ccccc3[N+](=O)[O-])C(=O)O)n2)cc1 [EK-B2] | 7 µM | 11 µM | 0.86 |  |  |  |  |  |
| O=C(O)/C(=N\Nc1nc(-c2ccc(Cl)c(Cl)c2)cs1)c1c[nH]c2ccccc12 [KY-689, {[4-(3,4-Dichloro-phenyl)-thiazol-2-yl]-hydrazono}-(1H-indol-3-yl)-acetic acid] | > 20 µM | > 20 µM | 4 |  |  |  |  |  |
| O=C(O)/C(=N/Nc1nc(-c2ccc(Cl)c(Cl)c2)cs1)c1cccc([N+](=O)[O-])c1 [KY-788-E, (E)-2-(2-(4-(3,4-dichlorophenyl)thiazol-2-yl)hydrazono)-2-(3-nitrophenyl)acetic acid] |  | 7 µM | 1.4 | 18 µM |  |  |  |  |
| COc1ccc(-c2sc(N/N=C(/Cc3ccccc3[N+](=O)[O-])C(=O)O)nc2-c2ccc(-c3ccccc3)cc2)cc1 [KY-577S, 2-{[4-Biphenyl-4-yl-5-(4-methoxy-phenyl)-thiazol-2-yl]-hydrazono}-3-(2-nitro-phenyl)-propionic acid] |  |  | 1 | 11.7 µM | 3.5 µM |  |  |  |
| COc1ccc(-c2nc(NN=C(Cc3ccccc3[N+](=O)[O-])C(=O)O)sc2-c2ccc(OC)c(OC)c2)cc1 [KY-341PRI] | 4 ± 0.51 µM | 5 ± 1.74 µM | 1.2 |  |  |  |  |  |
| [N-]=[N+]=NCCCOc1ccc(-c2csc(N/N=C(/Cc3ccccc3[N+](=O)[O-])C(=O)O)n2)cc1 [KH-167s] |  |  | 0.91 | 2.7 µM | 12 µM | 2.8 µM |  | 11.9 µM |
| COc1ccc(-c2nc(NN=C(Cc3ccccc3[N+](=O)[O-])C(=O)O)sc2-c2ccc(-n3cc(CCCO)nn3)cc2)cc1 [KY-447] | > 20 µM | 17 ± 1.29 µM | 1.5 |  |  |  |  |  |
| COc1ccc(-c2sc(N/N=C(/Cc3ccccc3[N+](=O)[O-])C(=O)O)nc2-c2ccc(-c3ccccc3)cc2)cc1 [KY-577SF, 2-{[4-Biphenyl-4-yl-5-(4-methoxy-phenyl)-thiazol-2-yl]-hydrazono}-3-(2-nitro-phenyl)-propionic acid] |  |  | 1 | 0.7 µM | 0.1 µM |  |  |  |
| O=C(O)/C(Cc1c[nH]c2ccccc12)=N\Nc1nc(-c2ccc(Cl)c(Cl)c2)cs1 [KY-753, (Z/E)-2-(2-(4-(3,4-dichlorophenyl)thiazol-2-yl)hydrazono)-3-(1H-indol-3-yl)propanoic acid] | 13.5 µM | 7.5 µM | 0.85 |  |  |  |  |  |
| NC(=O)/C(Cc1ccccc1[N+](=O)[O-])=N/Nc1nc(-c2ccc(Cl)c(Cl)c2)cs1 [KY-725] | 3 µM | 3 µM | 0.7 |  |  |  |  |  |
| O=C(O)/C(Cc1ccccc1[N+](=O)[O-])=N/Nc1nc2c(s1)CCc1cc(Cl)c(Cl)cc1-2 [PC-159F, 2-(2-(7,8-dichloro-4,5-dihydronaphtho[1,2-d]thiazol-2-yl)hydrazono)-3-(2-nitrophenyl)propanoic acid] | < 1 µM | < 1 µM | 1.05 |  |  |  |  |  |
